Measured values from KR20180000079A, “Kahweol을 포함하는 항비만 조성물” (경북대학교 산학협력단, priority 2016, dated 2018).

Assays:
Assay type in all cases: cell-based, mouse
[1] = tested on: 3T3-L1 preadipocytes [3T3-L1 전구 지방세포]; assay: MTT assay, cytotoxicity in 3T3-L1 preadipocytes; settings: 3T3-L1 cells, 4 or 40 μM, 24 or 48 h
[2] = tested on: 3T3-L1 adipocytes [3T3-L1 지방세포]; assay: Oil Red O staining: differentiation and lipid accumulation in 3T3-L1 cells
[3] = tested on: 3T3-L1 adipocytes [3T3-L1 지방세포]; assay: Triglyceride (TG) quantification in 3T3-L1 cells (colorimetric kit)
PPARγ [4] = assay: RT-PCR, PPARγ mRNA expression in 3T3-L1 cells; settings: 40 μM
C/EBPα [5] = assay: RT-PCR, C/EBPα mRNA expression in 3T3-L1 cells; settings: 40 μM
adiponectin [아디포넥틴] [6] = assay: RT-PCR, adiponectin mRNA expression in 3T3-L1 cells; settings: 40 μM
PPARγ [7] = assay: Western blot, PPARγ protein expression in 3T3-L1 adipocytes; settings: 40 μM
C/EBPα [8] = assay: Western blot, C/EBPα protein expression in 3T3-L1 adipocytes; settings: 40 μM
adiponectin [아디포넥틴] [9] = assay: Western blot, adiponectin protein expression in 3T3-L1 adipocytes; settings: 40 μM

## C[C@@]12C=Cc3occc3[C@H]1CC[C@@]13C[C@@H](CC[C@H]12)[C@@](O)(CO)C3 [Kahweol]
[1]
  cytotoxic effect: 세포 독성 효과를 보이지 않았다
[2]; 40 μM, 8 days
  differentiation of 3T3-L1 cells: 분화가 억제됨
[2]; 40 μM, 8 days, similar to preadipocytes (Fig. 3A)
  cell morphology: 소형 스핀들-형상 형태
[2]; 3T3-L1 cells, 40 μM
  lipid accumulation inhibitory activity compared with positive control: 양성 대조군 보다 우수한
[2]; 3T3-L1 cells, Oil Red O
  intracellular lipid accumulation: 억제함
[3]
  TG formation: 억제함
[3]; 40 μM
  TG formation inhibitory activity compared with positive control: 양성 대조군 보다 우수한
[3]; Mus musculus, 40 μM, read-out: decrease of intracellular TG level
  inhibition at 40 µM: 43.3%
PPARγ [4]
  PPARγ mRNA level: 현저히 감소
C/EBPα [5]
  C/EBPα mRNA level: 현저히 감소
Adiponectin [아디포넥틴] [6]
  adiponectin mRNA level: 감소
PPARγ [7]
  PPARγ protein expression: 억제됨
C/EBPα [8]
  C/EBPα protein expression: 억제됨
Adiponectin [아디포넥틴] [9]
  adiponectin protein expression: 억제됨
